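Method: 48-hour compound exposure of cells in 96-well plates, five concentrations, linear interpolation of endpoints. GI50: concentration for 50% inhibition of growth.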 Activity calls are given as the source filed them. No stated cut-off is given here; in the data, active = GI50 up to about 1.1 µM and inactive = higher.
How the values were obtained:
Assay in all cases: NCI tumour cell line growth inhibition, 48 h
SK-OV-3 = test system: SK-OV-3
A498 = test system: A498
RXF 631 = test system: RXF 631
OVCAR-5 = test system: OVCAR-5
MDA-MB-231 = test system: MDA-MB-231
LXFL 529 = test system: LXFL 529
TK-10 = test system: TK-10
786-0 = test system: 786-0
UACC-257 = test system: UACC-257
OVCAR-8 = test system: OVCAR-8
M19-MEL = test system: M19-MEL
HT-29 = test system: HT-29
IGROV-1 = test system: IGROV-1
HL-60 = test system: HL-60
SR = test system: SR
Malme-3M = test system: Malme-3M
KM-20L2 = test system: KM-20L2
T47D = test system: T47D
MCF7 = test system: MCF7
UACC-62 = test system: UACC-62
SW-620 = test system: SW-620
UO-31 = test system: UO-31
DMS-273 = test system: DMS-273
HOP-18 = test system: HOP-18
SF-268 = test system: SF-268
M14 = test system: M14
HOP-62 = test system: HOP-62
NCI-H460 = test system: NCI-H460
SF-539 = test system: SF-539
OVCAR-4 = test system: OVCAR-4
NCI-H226 = test system: NCI-H226
SK-MEL-28 = test system: SK-MEL-28
RPMI-8226 = test system: RPMI-8226
XF498 = test system: XF498
HCC 2998 = test system: HCC 2998
A549 = test system: A549
SN12C = test system: SN12C
HCT-15 = test system: HCT-15
MDA-N = test system: MDA-N
NCI/ADR-RES = test system: NCI/ADR-RES
Hs-578T = test system: Hs-578T
KM12 = test system: KM12
PC-3 = test system: PC-3
DLD-1 = test system: DLD-1
DU-145 = test system: DU-145
OVCAR-3 = test system: OVCAR-3
U-251 = test system: U-251
DMS-114 = test system: DMS-114
LOX IMVI = test system: LOX IMVI
HCT-116 = test system: HCT-116
SNB-75 = test system: SNB-75
MDA-MB-435 = test system: MDA-MB-435
MOLT-4 = test system: MOLT-4
SF-295 = test system: SF-295
K562 = test system: K562
SK-MEL-5 = test system: SK-MEL-5
SNB-19 = test system: SNB-19
CAKI-1 = test system: CAKI-1
CCRF-CEM = test system: CCRF-CEM
SNB-78 = test system: SNB-78
BT-549 = test system: BT-549
HOP-92 = test system: HOP-92
COLO 205 = test system: COLO 205
EKVX = test system: EKVX
ACHN = test system: ACHN
NCI-H23 = test system: NCI-H23
RXF 393 = test system: RXF 393
NCI-H522 = test system: NCI-H522
SK-MEL-2 = test system: SK-MEL-2

In the case of `CN1CCN(C)C12C=c1ccccc1=CC21CC1`, the GI50 (SK-OV-3) is reported as > 92.9 µM (inactive), the GI50 (A498) is reported as > 100 µM (inactive) and the GI50 (RXF 631) is reported as 53.6 µM (inactive). The GI50 (OVCAR-5) was > 100 µM (inactive), the GI50 (MDA-MB-231) was 38.4 µM (inactive) and the GI50 (LXFL 529) was 17.1 µM (inactive). The GI50 (TK-10) was 66.7 µM (inactive), the GI50 (786-0) was 54 µM (inactive) and the GI50 (UACC-257) was 23.7 µM (inactive). The GI50 (OVCAR-8) was 53.5 µM (inactive), the GI50 (M19-MEL) was 19.3 µM (inactive) and the GI50 (HT-29) was 17.2 µM (inactive). The GI50 (IGROV-1) was 68.7 µM (inactive), the GI50 (HL-60) was 3.02 µM (inactive) and the GI50 (SR) was 25.3 µM (inactive). For the same molecule, the GI50 (Malme-3M) was 28.5 µM (inactive), the GI50 (KM-20L2) was 27.3 µM (inactive) and the GI50 (T47D) was 45.1 µM (inactive). The GI50 (MCF7) was 35.4 µM (inactive), the GI50 (UACC-62) was 18.6 µM (inactive) and the GI50 (SW-620) was 22.2 µM (inactive). The GI50 (UO-31) was 40.9 µM (inactive), the GI50 (DMS-273) was 57 µM (inactive) and the GI50 (HOP-18) was > 75 µM (inactive). The GI50 (SF-268) was 29.7 µM (inactive), the GI50 (M14) was 18.6 µM (inactive) and the GI50 (HOP-62) was > 91.4 µM (inactive). For the same molecule, the GI50 (NCI-H460) was 30.8 µM (inactive), the GI50 (SF-539) was 37.9 µM (inactive) and the GI50 (OVCAR-4) was 71.3 µM (inactive). The GI50 (NCI-H226) was > 100 µM (inactive), the GI50 (SK-MEL-28) was 20.7 µM (inactive) and the GI50 (RPMI-8226) was 30 µM (inactive). The GI50 (XF498) was 23.9 µM (inactive), the GI50 (HCC 2998) was 16.3 µM (inactive) and the GI50 (A549) was > 91.4 µM (inactive). The GI50 (SN12C) was 81.1 µM (inactive), the GI50 (HCT-15) was 32.8 µM and the GI50 (MDA-N) was 27.4 µM (inactive). The GI50 (NCI/ADR-RES) was > 68.2 µM (inactive), the GI50 (Hs-578T) was 21.9 µM (inactive) and the GI50 (KM12) was 29 µM (inactive). For the same molecule, the GI50 (PC-3) was 32.3 µM (inactive), the GI50 (DLD-1) was 26.4 µM (inactive) and the GI50 (DU-145) was > 100 µM (inactive). For the same molecule, the GI50 (OVCAR-3) was 62.1 µM (inactive), the GI50 (U-251) was 37.8 µM (inactive) and the GI50 (DMS-114) was 18.2 µM (inactive). The GI50 (LOX IMVI) was 34.6 µM (inactive), the GI50 (HCT-116) was 25.1 µM (inactive) and the GI50 (SNB-75) was 45.6 µM (inactive). The GI50 (MDA-MB-435) was 22.1 µM (inactive), the GI50 (MOLT-4) was 21.6 µM (inactive) and the GI50 (SF-295) was > 77.6 µM (inactive). The GI50 (K562) was 22.8 µM (inactive), the GI50 (SK-MEL-5) was 23.2 µM (inactive) and the GI50 (SNB-19) was > 83.8 µM (inactive). For the same molecule, the GI50 (CAKI-1) was 74.1 µM (inactive), the GI50 (CCRF-CEM) was 24.2 µM (inactive) and the GI50 (SNB-78) was > 72.4 µM (inactive). The GI50 (BT-549) was 41 µM (inactive), the GI50 (HOP-92) was 28.7 µM (inactive) and the GI50 (COLO 205) was 15.7 µM (inactive). For the same molecule, the GI50 (EKVX) was > 95.9 µM (inactive), the GI50 (ACHN) was 74.8 µM (inactive) and the GI50 (NCI-H23) was > 100 µM (inactive). For the same molecule, the GI50 (RXF 393) was 55.5 µM (inactive), the GI50 (NCI-H522) was 24.5 µM (inactive) and the GI50 (SK-MEL-2) was 24.3 µM (inactive).
`O=S(=O)(O)c1cc(/N=N/c2cc(S(=O)(=O)O)c3cccnc3c2O)ccc1/C=C/c1ccc(/N=N/c2cc(S(=O)(=O)O)c3cccnc3c2O)cc1S(=O)(=O)O` was tested, and the GI50 (SK-OV-3) was > 100 µM (inactive), the GI50 (A498) was > 100 µM (inactive) and the GI50 (RXF 631) was > 100 µM (inactive). The GI50 (OVCAR-5) was > 100 µM (inactive), the GI50 (MDA-MB-231) was > 100 µM (inactive) and the GI50 (LXFL 529) was > 100 µM (inactive). For the same molecule, the GI50 (TK-10) was > 100 µM (inactive), the GI50 (786-0) was > 100 µM (inactive) and the GI50 (UACC-257) was > 100 µM (inactive). For the same molecule, the GI50 (OVCAR-8) was > 100 µM (inactive), the GI50 (M19-MEL) was > 100 µM (inactive) and the GI50 (HT-29) was > 100 µM (inactive). The GI50 (IGROV-1) was > 100 µM (inactive), the GI50 (HL-60) was 18.6 µM (inactive) and the GI50 (SR) was 21.7 µM (inactive). For the same molecule, the GI50 (Malme-3M) was > 100 µM (inactive), the GI50 (KM-20L2) was > 66.5 µM (inactive) and the GI50 (T47D) was > 100 µM (inactive). For the same molecule, the GI50 (MCF7) was > 100 µM (inactive), the GI50 (UACC-62) was > 100 µM (inactive) and the GI50 (SW-620) was > 100 µM (inactive). The GI50 (UO-31) was > 100 µM (inactive), the GI50 (DMS-273) was > 100 µM (inactive) and the GI50 (HOP-18) was > 100 µM (inactive). For the same molecule, the GI50 (SF-268) was > 100 µM (inactive), the GI50 (M14) was 63.2 µM (inactive) and the GI50 (HOP-62) was > 100 µM (inactive). For the same molecule, the GI50 (NCI-H460) was > 100 µM (inactive), the GI50 (SF-539) was > 100 µM (inactive) and the GI50 (OVCAR-4) was > 100 µM (inactive). For the same molecule, the GI50 (NCI-H226) was > 100 µM (inactive), the GI50 (SK-MEL-28) was > 100 µM (inactive) and the GI50 (RPMI-8226) was > 97.7 µM (inactive). The GI50 (XF498) was > 100 µM (inactive), the GI50 (HCC 2998) was > 100 µM (inactive) and the GI50 (A549) was > 100 µM (inactive). The GI50 (SN12C) was > 100 µM (inactive), the GI50 (HCT-15) was > 100 µM and the GI50 (MDA-N) was > 100 µM (inactive). For the same molecule, the GI50 (NCI/ADR-RES) was > 100 µM (inactive), the GI50 (Hs-578T) was > 100 µM (inactive) and the GI50 (KM12) was > 100 µM (inactive). The GI50 (PC-3) was > 100 µM (inactive), the GI50 (DLD-1) was > 100 µM (inactive) and the GI50 (DU-145) was > 100 µM (inactive). The GI50 (OVCAR-3) was > 100 µM (inactive), the GI50 (U-251) was > 100 µM (inactive) and the GI50 (DMS-114) was > 100 µM (inactive). For the same molecule, the GI50 (LOX IMVI) was > 94.8 µM (inactive), the GI50 (HCT-116) was > 89.1 µM (inactive) and the GI50 (SNB-75) was > 100 µM (inactive). The GI50 (MDA-MB-435) was > 100 µM (inactive), the GI50 (MOLT-4) was 20.4 µM (inactive) and the GI50 (SF-295) was > 100 µM (inactive). For the same molecule, the GI50 (K562) was 34 µM (inactive), the GI50 (SK-MEL-5) was > 100 µM (inactive) and the GI50 (SNB-19) was > 100 µM (inactive). The GI50 (CAKI-1) was > 100 µM (inactive), the GI50 (CCRF-CEM) was 18.3 µM (inactive) and the GI50 (SNB-78) was > 100 µM (inactive). For the same molecule, the GI50 (BT-549) was > 100 µM (inactive), the GI50 (HOP-92) was > 72.4 µM (inactive) and the GI50 (COLO 205) was > 100 µM (inactive). The GI50 (EKVX) was > 100 µM (inactive), the GI50 (ACHN) was > 100 µM (inactive) and the GI50 (NCI-H23) was > 100 µM (inactive). The GI50 (RXF 393) was > 31.6 µM (inactive), the GI50 (NCI-H522) was > 100 µM (inactive) and the GI50 (SK-MEL-2) was > 100 µM (inactive).
